Assay results reported in patent publication US6150414A, “Compositions and methods for treating viral infections” (priority 1992, dated 2000).
Several values for one entry are separate records, joined by “and”; a condition that tells them apart may be missing. Identical values can stand only once. Like-named read-outs stand apart in the source and are kept apart here.

Test system: Friend Leukemia Virus
Assay: Inhibition of Friend Leukemia Virus-induced splenomegaly in mice, compounds intraperitoneally 24 hours after virus (Example 1(a))
Type: in vivo, BALB/c mice
Parameters: Actual Spleen Weight / Average Spleen Weight: unit not given here
Settings: for Actual Spleen Weight: single animal; for inhibition of FV-induced splenomegaly / anti-retroviral activity: Example 1(a); for inhibition in vivo at 0.1 mg / inhibition in vivo at 0.05 mg / inhibition in vivo at 0.2 mg: Mus musculus, ip; for Pooled Average % Inhibition: pooled over 50, 100, 200, 2 × 100 micrograms
Description: The effects of compositions according to the present invention on infection of mammals with Friend Leukemia Virus (FV) were examined.
Friend Leukemia Virus is an aggressive retrovirus which induces an acute erythroleukemia in sensitive strains of mice such as BALB/c and NIH swiss mice as described in Friend, C. J., Exp. Med. 105: 307-324, 1957; Friend, C. et al. Proc. Natl. Acad. Sci. USA 68: 378-383, 1971; Friend, C. et al. Natl. Cancer Inst. Mongr. 22: 508-552, 1966. The malignant transformation is the result of the combined activities of the Spleen Focus Forming Virus (SFFV) and the ecotropic Murine Friend Leukemia Helper Virus (F-MuLV). The acute erythroleukemia is characterized by hepatosplenomegaly (a marked increase in the size of the spleen and liver) and a severe anemia.
Friend Leukemia Virus was prepared by homogenizing the enlarged spleen of a mouse previously infected with FV, 10 days after intravenous virus injection. The spleen was homogenized in phosphate buffered saline in a volume equal to ten times the weight of the isolated spleen.
The effects of compositions according to the present invention on the increase in spleen size (splenomegaly) of BALB/c mice (Jackson Labs, Bar Harbor, ME) was examined. In these experiments, the virus (10^6 focus forming units--FFU) was inoculated intravenously and 100 micrograms of the compounds indicated in Table II were administered to the mice intraperitoneally 24 hours later. Each compound was administered once to two mice. The animals were sacrificed ten days later and their spleens weighed.
The present assay has been developed from similar assays using hypericin or pseudohypericin and employing higher numbers of experimental animals per group (e.g. 4 animals). It was discovered however that the specificity and sensitivity of this assay are such that an experimental group of two animals is of more than adequate predictive value.
As used in Table II (and subsequent Tables of this Example l(a) and (b), "average percent inhibition" is calculated as follows: [formula] wherein "ASWNC" designates "average spleen weight of negative control"; "ASWE" designates "average spleen weight of experimental (treated) subject"; and "ASWPC" designates "average spleen weight of positive control". Average spleen weight is the numerical average of spleen weights of each experimental group (in Table II each such group includes two members).
In these experiments, the virus (10^6 focus forming units--FFU) was inoculated intravenously, and the indicated doses of the antiviral compounds of this invention were administered to the BALB/c mice intraperitoneally 24 hours later. The animals were then sacrificed ten days later and their spleens weighed.
Pseudohypericin was diluted in phosphate buffered saline with 1% ethanol.
An expanded series of experiments was next performed in which various concentrations (i.e. 50, 100, 200 and 2×100, i.e., 100 micrograms administered twice) of a different set of PAC compounds (numbers 16-29 and 30-36 in Table III below) were administered intraperitoneally each according to the same protocol described above. Compounds 16-29 all had 3-5 fused, aromatic rings and no side groups except for oxygen or hydroxyl groups, whereas compounds 30-36 all had 3 fused aromatic rings and side chains selected from the group of oxygen, hydroxyl and methyl.
When 2 doses of the compounds were given, the second dose was administered 24-48 hours after the first injection. The animals were infected and splenomegaly determined as above for the compounds in Table II. In Table III, "pooled average percent inhibition" is calculated by adding the average percent inhibition for each experiment with the same compound and dividing the sum by the number of experiments (i.e. the number 4). […]

[1] = 100 micrograms i.p. once, 24 h after FV, Table II
[2] = 24 h, read-out: Average % Inhibition, 100 micrograms i.p. once, 24 h after FV, Table II
[3] = 24 h, 100 micrograms i.p. once, 24 h after FV, Table II, read-out: Average % Inhibition
[4] = dose 2 × 100 (micrograms) i.p., Table III
[5] = dose 50 (micrograms) i.p., Table III
[6] = dose 100 (micrograms) i.p., Table III
[7] = dose 200 (micrograms) i.p., Table III
[8] = dose 2 × 100 (micrograms) i.p., Table III, read-out: Average Perdosage % Inhibition
[9] = dose 50 (micrograms) i.p., Table III, read-out: Average Perdosage % Inhibition
[10] = dose 100 (micrograms) i.p., Table III, read-out: Average Perdosage % Inhibition
[11] = dose 200 (micrograms) i.p., Table III, read-out: Average Perdosage % Inhibition
[12] = read-out: Average Perdosage % Inhibition, dose 2 × 100 (micrograms) i.p., Table III
[13] = read-out: Average Perdosage % Inhibition, dose 50 (micrograms) i.p., Table III
[14] = read-out: Average Perdosage % Inhibition, dose 100 (micrograms) i.p., Table III
[15] = read-out: Average Perdosage % Inhibition, dose 200 (micrograms) i.p., Table III

SMILES: c1cc2cccc3c2c(c1)c1c2c4cccc5cccc(c54)c2c2c4cccc5cccc(c54)c2c31 [Compound 1, Decacyclene]
- Average % Inhibition [1]: 57.5%
- Average Spleen Weight [1]: 0.3636
- Actual Spleen Weight [1]: 0.3940 and 0.3331
- inhibition of FV-induced splenomegaly / anti-retroviral activity: significantly inhibited FV-induced splenomegaly

SMILES: O=C1OC(=O)c2ccc3c4ccc5c6c(ccc(c7ccc1c2c73)c64)C(=O)OC5=O [Compound 2, 3,4,9,10-Perylenetetracarboxylic dianhydride]
- Average % Inhibition [1]: 1.3%
- Average Spleen Weight [1]: 0.8439
- Actual Spleen Weight [1]: 0.8678 and 0.8200

SMILES: O=C1c2ccccc2-c2ccc3c4ccc5c6c(ccc(c7ccc1c2c73)c64)-c1ccccc1C5=O [Compound 3, Isoviolanthrone]
- Average % Inhibition [1]: 41.5%
- Average Spleen Weight [1]: 0.5001
- Actual Spleen Weight [1]: 0.5147 and 0.4855

SMILES: O=C1c2ccccc2-c2cc(O)c3c4c(O)cc5c6c(ccc(c7ccc1c2c73)c64)C(=O)c1ccccc1-5 [Compound 4, 16,17-Dihydroxydibenzanthrone]
- Average % Inhibition [1]: 50.9%
- Average Spleen Weight [1]: 0.4194
- Actual Spleen Weight [1]: 0.4151 and 0.4234

SMILES: O=c1oc(=O)c2c3ccc4cccc5c6cccc7ccc(c12)c(c76)c3c45 [Compound 5, Benzo(GHI)Perylene-1,2-Dicarboxylic Anhydride]
- Average Spleen Weight [1]: 0.5101
- inhibition in vivo at 0.1 mg [2]: 40.5%

SMILES: O=c1oc(=O)c2c3ccc4ccc5ccc6ccc7ccc(c12)c1c7c6c5c4c31 [Compound 6, 3,4-Coronenedicarboxylic anhydride]
- Average Spleen Weight [1]: 0.8700

SMILES: c1ccc2c(c1)C1c3ccccc3C2c2ccccc21 [Compound 7, Triptycene]
- Average Spleen Weight [1]: 0.4655
- inhibition of FV-induced splenomegaly / anti-retroviral activity: significantly inhibited FV-induced splenomegaly
- inhibition in vivo at 0.1 mg [3]: 45.6%

SMILES: c1cc2ccc3ccc4ccc5ccc6ccc1c1c2c3c4c5c61 [Compound 8, Coronene]
- Average Spleen Weight [1]: 0.4739
- inhibition of FV-induced splenomegaly / anti-retroviral activity: significantly inhibited FV-induced splenomegaly
- inhibition in vivo at 0.1 mg [2]: 44.6%

SMILES: Cc1cc2ccc3ccc4ccccc4c3c2c2c1ccc1ccccc12 [Compound 11, 3-Methylphenanthro(3,4-C)Phenanthrene]
- Average Spleen Weight [1]: 0.4235
- inhibition in vivo at 0.1 mg [2]: 50.5%

SMILES: CC1=CC2CCc3ccc4ccccc4c3C2c2c1ccc1ccccc21 (stereo not shown) [Compound 12, 4A,5,6,12C-Tetrahydro-3-Methylphenanthro (3,4-C)phenanthrene]
- Average Spleen Weight [1]: 0.4531
- inhibition in vivo at 0.1 mg [2]: 47.1%

SMILES: O=C1CC2CC(=O)c3ccc4ccccc4c3C2c2c1ccc1ccccc21 (stereo not shown) [Compound 13, 3,4,4A,5,6,12C-Hexahydrophenanthro (3,4-C)Phenanthrene-3,6-Dione]
- Average Spleen Weight [1]: 0.4742
- inhibition in vivo at 0.1 mg [3]: 44.6%

SMILES: c1ccc2c(c1)ccc1ccc3ccc4ccc5ccccc5c4c3c12 [Compound 14, Phenanthro(3,4-C)Phenanthrene]
- Average Spleen Weight [1]: 0.5419
- inhibition in vivo at 0.1 mg [2]: 36.6%

SMILES: O=C1CC2CCc3ccc4ccccc4c3C2c2c1ccc1ccccc21 (stereo not shown) [Compound 15, 3,4,4A,5,6,12C-Hexahydrophenanthro (3,4-C)phenanthren-3-one]
- Average Spleen Weight [1]: 0.3739
- inhibition in vivo at 0.1 mg [3]: 56.3%

SMILES: C1CCc2c(c3c(c4c2CCCC4)CCCC3)C1 [Compound 16, Dodecahydrotriphenylene]
- Actual Spleen Weight (dose 2 × 100 (micrograms) i.p., second dose 24-48 hours later, Table III): 1.161 and 1.2072
- Average Perdosage % Inhibition [4]: 28%
- Average Spleen Weight [4]: 1.1867
- Average Perdosage % Inhibition [5]: 44%
- Average Spleen Weight [5]: 0.9508
- Actual Spleen Weight [5]: 0.9062 and 0.9954
- Average Spleen Weight [6]: 1.6057
- Actual Spleen Weight [6]: 1.6206 and 1.5907
- Average Perdosage % Inhibition [7]: 24%
- Average Spleen Weight [7]: 1.2478
- Actual Spleen Weight [7]: 1.2007 and 1.2948
- Pooled Average % Inhibition (Table III): 24%

SMILES: c1ccc2c(c1)ccc1ccccc12 [Compound 17, Phenanthrene]
- inhibition in vivo at 0.1 mg [8]: 36%
- inhibition in vivo at 0.05 mg [9]: 31%
- inhibition in vivo at 0.1 mg [10]: 21%
- inhibition in vivo at 0.2 mg [11]: 17%
- Average Spleen Weight [4]: 1.0683
- Average Spleen Weight [5]: 1.1350
- Average Spleen Weight [6]: 1.2864
- Average Spleen Weight [7]: 1.3501
- Pooled Average % Inhibition (Table III): 26%

SMILES: c1ccc2c(c1)c1ccccc1c1ccccc21 [Compound 19, Triphenylene]
- inhibition in vivo at 0.1 mg [12]: 13%
- inhibition in vivo at 0.05 mg [13]: 37%
- inhibition in vivo at 0.1 mg [14]: 4%
- inhibition in vivo at 0.2 mg [15]: 13%
- Average Spleen Weight [4]: 1.4063
- Average Spleen Weight [5]: 1.0499
- Average Spleen Weight [6]: 1.5345
- Average Spleen Weight [7]: 1.3994
- Pooled Average % Inhibition (Table III): 17%

SMILES: c1ccc2c(c1)CCc1ccccc1-2 [Compound 20]
- inhibition in vivo at 0.1 mg [8]: 6%
- inhibition in vivo at 0.05 mg [9]: 22%
- inhibition in vivo at 0.2 mg [11]: 11%
- Average Spleen Weight [4]: 1.5023
- Average Spleen Weight [5]: 1.2758
- Average Spleen Weight [6]: 2.0019
- Average Spleen Weight [7]: 1.4315
- Pooled Average % Inhibition (Table III): 3%

SMILES: C1=CCC2=C(C1)CC1=C(CC=CC1)C2 [Compound 21, 1,4,5,8,9,10-Hexahydroanthracene]
- inhibition in vivo at 0.1 mg [8]: 23%
- inhibition in vivo at 0.05 mg [9]: 13%
- inhibition in vivo at 0.1 mg [10]: 13%
- inhibition in vivo at 0.2 mg [11]: 21%
- Average Spleen Weight [4]: 1.2624
- Average Spleen Weight [5]: 1.4036
- Average Spleen Weight [6]: 1.4121
- Average Spleen Weight [7]: 1.2947
- Pooled Average % Inhibition (Table III): 17%

SMILES: c1ccc(-c2c3ccccc3c(-c3ccccc3)c3ccccc23)cc1 [Compound 22, 9,10-Diphenylanthracene]
- inhibition in vivo at 0.1 mg [12]: 13%
- inhibition in vivo at 0.05 mg [13]: 41%
- inhibition in vivo at 0.1 mg [14]: 5%
- inhibition in vivo at 0.2 mg [15]: 0%
- Average Spleen Weight [4]: 1.4120
- Average Spleen Weight [5]: 0.9936
- Average Spleen Weight [6]: 1.5171
- Average Spleen Weight [7]: 1.5913
- Pooled Average % Inhibition (Table III): 15%

SMILES: c1cc2c3c(ccc4c3c1CCC4)CCC2 [Compound 23, 1,2,3,6,7,8-Hexahydropyrene]
- inhibition in vivo at 0.1 mg [8]: 32%
- inhibition in vivo at 0.05 mg [9]: 26%
- inhibition in vivo at 0.1 mg [10]: 6%
- inhibition in vivo at 0.2 mg [11]: 34%
- Average Spleen Weight [4]: 1.1281
- Average Spleen Weight [5]: 1.2092
- Average Spleen Weight [6]: 1.5131
- Average Spleen Weight [7]: 1.0961
- Pooled Average % Inhibition (Table III): 25%

SMILES: O=C1C(c2ccccc2)=C(c2ccccc2)C(c2ccccc2)=C1c1ccccc1 [Compound 24, Tetraphenylcyclo pentadienone]
- inhibition in vivo at 0.1 mg [8]: 24%
- inhibition in vivo at 0.05 mg [9]: 20%
- inhibition in vivo at 0.1 mg [10]: 14%
- inhibition in vivo at 0.2 mg [11]: 6%
- Average Spleen Weight [4]: 1.2437
- Average Spleen Weight [5]: 1.2959
- Average Spleen Weight [6]: 1.3940
- Average Spleen Weight [7]: 1.5070
- Pooled Average % Inhibition (Table III): 16%
